This data set relates to d-U937 cells. Kind of data set: Cell viability: MTT assay. As to conditions: 1 μg/mL. It is filed as cell-based, human. On the procedure: Differentiated U937 cells were pre-incubated with each test compound (final concentration 1 μg/mL or 10 μg/mL in 200 μL media indicated below) under two protocols: the first for 4 hr in 5% FCS RPMI1640 media and the second in 10% FCS RPMI1640 media for 24 h. The supernatant was replaced with new media (200 μL) and MTT stock solution (10 μL, 5 mg/mL) was added to each well. After incubation for 1 hr the media were removed, DMSO (200 μL) was added to each well and the plates were shaken lightly for 1 hr prior to reading the absorbance at 550 nm. The percentage loss of cell viability was calculated for each well relative to vehicle (0.5% DMSO) treatment. Consequently an apparent increase in cell viability for drug treatment relative to vehicle is tabulated as a negative percentage.
On the technique in general: Formazan colour is commonly taken as a measure of viable cells.

On to `COc1ccc(Nc2nccc(Oc3ccc(NC(=O)Nc4cc(C(C)(C)C)nn4-c4ccc(C)cc4)c4ccccc34)n2)cc1Cl` [Example 28, 1-(3-(tert-butyl)-1-(p-tolyl)-1H-pyrazol-5-yl)-3-(4-((2-((3-chloro-4-methoxyphenyl)amino)pyrimidin-4-yl)oxy)naphthalen-1-yl)urea], for which the “MTT Assay Cell viability at time point in d-U937 Cells 4 h” value is “−ve (−ve and +ve indicate the value is below and above respectively, the no significant effect threshold defined as 30% inhibition at 1 μg/mL at the time point indicated)”; the “MTT Assay Cell viability at time point in d-U937 Cells 24 h” value was “−ve (−ve and +ve indicate the value is below and above respectively, the no significant effect threshold defined as 30% inhibition at 1 μg/mL at the time point indicated)”.
Consider `COc1ccc(Nc2nccc(Oc3ccc(NC(=O)Nc4cc(C(C)(C)C)nn4-c4ccc(C)cc4)c4ccccc34)n2)c(OC)c1` [Example 8, 1-(3-(tert-butyl)-1-(p-tolyl)-1H-pyrazol-5-yl)-3-(4-((2-((2,4-dimethoxyphenyl)amino)pyrimidin-4-yl)oxy)naphthalen-1-yl)urea], for which the “MTT Assay Cell viability at time point in d-U937 Cells 4 h” value is “−ve (−ve and +ve indicate the value is below and above respectively, the no significant effect threshold defined as 30% inhibition at 1 μg/mL at the time point indicated)”; the “MTT Assay Cell viability at time point in d-U937 Cells 24 h” value was “−ve (−ve and +ve indicate the value is below and above respectively, the no significant effect threshold defined as 30% inhibition at 1 μg/mL at the time point indicated)”.
For the compound `Cc1ccc(-n2nc(C(C)(C)C)cc2NC(=O)Nc2ccc(Oc3ccnc(Nc4ccccc4Cl)n3)c3ccccc23)cc1` [Example 6, 1-(3-(tert-butyl)-1-(p-tolyl)-1H-pyrazol-5-yl)-3-(4-((2-((2-chlorophenyl)amino)pyrimidin-4-yl)oxy)naphthalen-1-yl)urea], the “MTT Assay Cell viability at time point in d-U937 Cells 4 h” value was “−ve (−ve and +ve indicate the value is below and above respectively, the no significant effect threshold defined as 30% inhibition at 1 μg/mL at the time point indicated)”; the “MTT Assay Cell viability at time point in d-U937 Cells 24 h” value is “−ve (−ve and +ve indicate the value is below and above respectively, the no significant effect threshold defined as 30% inhibition at 1 μg/mL at the time point indicated)”.
On to `Cc1ccc(-n2nc(C(C)(C)C)cc2NC(=O)Nc2ccc(Oc3ccnc(Nc4ccccc4C)n3)c3ccccc23)cc1` [Example 21, 1-(3-(tert-butyl)-1-(p-tolyl)-1H-pyrazol-5-yl)-3-(4-((2-(o-tolylamino)pyrimidin-4-yl)oxy)naphthalen-1-yl)urea], for which the “MTT Assay Cell viability at time point in d-U937 Cells 4 h” value was “−ve (−ve and +ve indicate the value is below and above respectively, the no significant effect threshold defined as 30% inhibition at 1 μg/mL at the time point indicated)”; the “MTT Assay Cell viability at time point in d-U937 Cells 24 h” value was “−ve (−ve and +ve indicate the value is below and above respectively, the no significant effect threshold defined as 30% inhibition at 1 μg/mL at the time point indicated)”.
For `Cc1ccc(Nc2nccc(Oc3ccc(NC(=O)Nc4cc(C(C)(C)C)nn4-c4ccc(C)cc4)c4ccccc34)n2)cc1` [Example 11, 1-(3-(tert-butyl)-1-(p-tolyl)-1H-pyrazol-5-yl)-3-(4-((2-(p-tolylamino)pyrimidin-4-yl)oxy)naphthalen-1-yl)urea], the “MTT Assay Cell viability at time point in d-U937 Cells 4 h” value is “−ve (−ve and +ve indicate the value is below and above respectively, the no significant effect threshold defined as 30% inhibition at 1 μg/mL at the time point indicated)”; the “MTT Assay Cell viability at time point in d-U937 Cells 24 h” value is “−ve (−ve and +ve indicate the value is below and above respectively, the no significant effect threshold defined as 30% inhibition at 1 μg/mL at the time point indicated)”.
Take `CCOc1ccc(Nc2nccc(Oc3ccc(NC(=O)Nc4cc(C(C)(C)C)nn4-c4ccc(C)cc4)c4ccccc34)n2)cc1` [Example 22, 1-(3-(tert-butyl)-1-(p-tolyl)-1H-pyrazol-5-yl)-3-(4-((2-((4-ethoxyphenyl)amino)pyrimidin-4-yl)oxy)naphthalen-1-yl)urea]: the “MTT Assay Cell viability at time point in d-U937 Cells 4 h” value was “−ve (−ve and +ve indicate the value is below and above respectively, the no significant effect threshold defined as 30% inhibition at 1 μg/mL at the time point indicated)”; the “MTT Assay Cell viability at time point in d-U937 Cells 24 h” value is “−ve (−ve and +ve indicate the value is below and above respectively, the no significant effect threshold defined as 30% inhibition at 1 μg/mL at the time point indicated)”.
Take `CC(C)(C)c1cc(NC(=O)Nc2ccc(Oc3ccnc(Nc4ccccc4)n3)c3ccccc23)n(-c2ccc(O)cc2)n1` [Example 3, 1-(3-(tert-butyl)-1-(4-hydroxyphenyl)-1H-pyrazol-5-yl)-3-(4-((2-(phenylamino)pyrimidin-4-yl)oxy)naphthalen-1-yl)urea]: the “MTT Assay Cell viability at time point in d-U937 Cells 4 h” value was “−ve (−ve and +ve indicate the value is below and above respectively, the no significant effect threshold defined as 30% inhibition at 1 μg/mL at the time point indicated)”; the “MTT Assay Cell viability at time point in d-U937 Cells 24 h” value is “−ve (−ve and +ve indicate the value is below and above respectively, the no significant effect threshold defined as 30% inhibition at 1 μg/mL at the time point indicated)”.
Turning to `Cc1ccc(-n2nc(C(C)(C)C)cc2NC(=O)Nc2ccc(Oc3ccnc(Nc4cccc(F)c4)n3)c3ccccc23)cc1` [Example 15, 1-(3-(tert-butyl)-1-(p-tolyl)-1H-pyrazol-5-yl)-3-(4-((2-((3-fluorophenyl)amino)pyrimidin-4-yl)oxy)naphthalen-1-yl)urea], the “MTT Assay Cell viability at time point in d-U937 Cells 4 h” value was “−ve (−ve and +ve indicate the value is below and above respectively, the no significant effect threshold defined as 30% inhibition at 1 μg/mL at the time point indicated)”; the “MTT Assay Cell viability at time point in d-U937 Cells 24 h” value was “−ve (−ve and +ve indicate the value is below and above respectively, the no significant effect threshold defined as 30% inhibition at 1 μg/mL at the time point indicated)”.
In the case of `Cc1ccc(-n2nc(C(C)(C)C)cc2NC(=O)Nc2ccc(Oc3ccnc(Nc4ccc(Cl)cc4)n3)c3ccccc23)cc1` [Example 16, 1-(3-(tert-butyl)-1-(p-tolyl)-1H-pyrazol-5-yl)-3-(4-((2-((4-chlorophenyl)amino)pyrimidin-4-yl)oxy)naphthalen-1-yl)urea], the “MTT Assay Cell viability at time point in d-U937 Cells 4 h” value was “−ve (−ve and +ve indicate the value is below and above respectively, the no significant effect threshold defined as 30% inhibition at 1 μg/mL at the time point indicated)”; the “MTT Assay Cell viability at time point in d-U937 Cells 24 h” value was “−ve (−ve and +ve indicate the value is below and above respectively, the no significant effect threshold defined as 30% inhibition at 1 μg/mL at the time point indicated)”.
Consider `COCC(=O)Nc1cc(Oc2ccc(NC(=O)Nc3cc(C(C)(C)C)nn3-c3ccc(C)cc3)c3ccccc23)ccn1` [Reference Compound, N-(4-(4-(3-(3-tert-butyl-1-p-tolyl-1H-pyrazol-5-yl)ureido)naphthalen-1-yloxy)pyridin-2-yl)-2-methoxyacetamide, reference compound], for which the “MTT Assay Cell viability at time point in d-U937 Cells 4 h” value was “−ve (−ve and +ve indicate the value is below and above respectively, the no significant effect threshold defined as 30% inhibition at 1 μg/mL at the time point indicated)”; the “MTT Assay Cell viability at time point in d-U937 Cells 24 h” value is “+ve (−ve and +ve indicate the value is below and above respectively, the no significant effect threshold defined as 30% inhibition at 1 μg/mL at the time point indicated)”.

Values taken from patent US9993478B2, “1-pyrazolyl-3-(4-((2-anilinopyrimidin-4-yl) oxy) napththalen-1-yl) ureas as P38 MAP knase inhibitors” (Respivert Ltd., priority 2011, dated 2018).
